Here are results for seven molecules from US20240217946A1, “ANTIDEPRESSANT AND ANXIOLYTIC SUBSTITUTED CINNAMAMIDE COMPOUND” (TASLY PHARMACEUTICAL GROUP CO., LTD., priority 2021, published 2024).

The structures appear in SMILES notation. “Also recorded” adds a separate entry of the source. Structures can show the parent of a compound that is named as a salt. Marks after values point to notes of the source that are not given here.

In assay [1] the test system is DA reuptake in rat brain synaptosomes. Description: 3H-DA reuptake by rat brain synaptosomes. The conditions noted are these: 100 μM, positive control. It is filed as biochemical. The source says:
At present, it is believed that absolute or relative deficiencies of the central monoamine neurotransmitters 5-hydroxytryptamine (5-HT), norepinephrine (NA) and dopamine (DA) are closely related to depression and anxiety. This experiment was designed to evaluate, by the method of in vitro monoamine reuptake, the inhibitory effect of two samples of tested compound I-5 and compound M2 on reuptake of 5-HT, NA and DA in rat brain synaptosomes. The preparation of in vitro SD rat brain synaptosomes and isotopic tracer method were employed to investigate IC50 of inhibition of monoamine reuptake of DA, 5-HT and NA in two tested samples, in order to explore the possible mechanism of antidepressant and anxiolytic effects of compound I-5 and compound M2.
Synaptosomes were separated using methods in literature to prepare brain synaptosomes. SD rats were rapidly decapitated with a small animal decapitator. After decapitation, brains were taken out quickly and precooled in an ice-water mixture, and the pia mater and vascular tissue were removed. Brain tissue was taken out. 10 times volume (ml/g) of 10 mM Tris HCl buffer (containing 0.32 M sucrose, pH 7.4) was added, an ultrasonic cell pulverizer was used for homogenization (maintaining at a low temperature), and the brain tissue was homogenized and centrifuged for 10 min (4° C., 1,000 g). After balanced centrifugation (1500 g, 10 min) at 4° C., precipitate was discarded, then supernatant was taken, and centrifugation (20000 g) was performed again for 30 min. The supernatant was discarded and the precipitate, i.e. crude extract of synaptic corpuscles, was retained. […] The precipitate was suspended in a small amount of Kreb's buffer (NaCl 118 mM, KCl 4.7 mM, CaCl2) 2.5 mM, MgSO4 1.2 mM, KH2PO4 1.2 mM, NaHCO325 mM and Glucose 11.1 mM, pH 7.2-7.4), BCA method was used for protein quantification, and the operation steps were as described in the description. […]
(§1) The percentage inhibition of isotope ligand binding by each compound was calculated according to the following equation: […]

In a further assay the test system is mice. The following applies: Patent C; cited from earlier work.
The test system of a further assay is SD rats. The assay can be described thus: Vogel drinking conflict experiment in rats, single administration. It is filed as in vivo. The conditions noted are these: 30 min after single dose, punishment stage 3 min, n = 8. On the procedure: 75 male SD rats, with the body weight of 180-220 g, were fed adaptively for 1 week, water deprived for 24 h for training period test. The animals screened to be qualified were randomly divided into 7 groups (a solvent control group, estazolam group, compound M2 group, compound II-3 group, compound II-4 group, compound II-5 group and compound II-10 group) according to their body weight, with 8 rats in each group. […] results of 3.1: the positive drug estazolam was administered intragastrically at 1.24 mg/kg; and the solvent control group was gavaged with an equal volume of solvent. The grouped animals were continued to be water deprived for 24 h and were given a single dose, and tested in a punishment experiment 30 min after the single dose.
The experiment was carried out in two stages. The first stage is a training stage, in which 24 h after water deprivation, animals were placed in an operation box separately, and were allowed to fully explore until they found the bottle mouth and started to lick water (with an intensity of electric shock being 0 mA), a counter automatically recorded the number of licks within 3 min, and the animals that licked water less than 300 times were eliminated.
Observation index: the number of water licks of rats in the punishment stage.
(§2) Data was expressed as mean±standard (mean±SD) difference, and statistics of data differences were made by one-way analysis of variance (ANOVA) or nonparametric test, and differences between groups were determined by P<0.05.

In the next assay the test system is ICR mice. The assay can be described thus: Elevated plus maze experiment in mice, single administration. It is filed as in vivo. The following applies: 30 min after single administration. On the procedure: 50 male ICR mice were randomly divided into 5 groups (a solvent control group, estazolam group, M2 high dosage group, M2 medium dosage group, M2 low dosage group), with 10 mice in each group. The compound M2 high, medium and low dosage groups were intragastrically administered at 20 mg/kg. 10 mg/kg and 5 mg/kg, respectively; the positive drug estazolam was intragastrically administered at 2.5 mg/kg; and the solvent control group was gavaged with an equal volume of solvent. Behavior test was performed in each group 30 min after single administration. The experiments were required to be conducted between 8:00 am and […], and all animals entered the test laboratory on the previous day.
The laboratory was dimly lit (with the lowest brightness that can distinguish the subtle activities of mice at a distance of 1.5 m) and the brightness was kept constant, with a room temperature of about 20° C., and kept quiet. Before the maze test, each mouse was placed in a 35 cm*10 cm*5 cm plastic box and left to explore freely for 5 min and then quickly placed at the central platform of an elevated plus maze, with its head facing one of the open arms, and the following indexes were recorded upon release. Each mouse was tested for 5 min. Observers observed and recorded animal activities at a distance of 1.5 m. At intervals, the maze was wiped with a wet cloth to remove feces, and then wiped with a dry cloth before a next mouse was tested.
• (1) The number of open arm entries (OE): the number of entries into any open arm, based on the fact that all four claws of the mouse entered the arm, and a complete exit of one claw from the arm indicated the completion of the entry activity; • (2) open arm time (OT): the time of entering an open arm, with the unit of seconds; • (3) the number of close arm entries (CE): the number of entries into any close arm, based on the fact that all four claws of the mouse entered the arm; • (4) close arm time (CT): the time of entering a close arm, with the unit of seconds; • (5) percentage of open arm time: OT %=OT/(OT+CT)*100%; and • (6) percentage of open arm entries: OE %=OE/(OE+CE)*100%.
70 male ICR mice were randomly divided into 7 groups (a solvent control group, estazolam group, compound M2 group, compound II-3 group, compound II-4 group, compound II-5 group, and compound II-10 group), with 10 mice in each group. The dosage of M2 and its four structurally similar compounds was determined as 20 mg/kg according to the experimental results of 3.1: the positive drug estazolam was administered intragastrically at 2.5 mg/kg; and the solvent control group was gavaged with an equal volume of solvent. Behavior test was performed in each group 30 min after single administration. The experiments were required to be conducted between 8:00 am and […], and all animals entered the test laboratory on the previous day.
The behavioral test method and behavioral observation indexes were the same as those in 3.1.
as §2

For assay [2], the system named is NA reuptake in rat brain synaptosomes. The assay can be described thus: 3H-NA reuptake by rat brain synaptosomes. The conditions noted are these: 100 μM, positive control. It is filed as biochemical.
Description: At present, it is believed that absolute or relative deficiencies of the central monoamine neurotransmitters 5-hydroxytryptamine (5-HT), norepinephrine (NA) and dopamine (DA) are closely related to depression and anxiety.
Synaptosomes were separated using methods in literature to prepare brain synaptosomes. SD rats were rapidly decapitated with a small animal decapitator. After decapitation, brains were taken out quickly and precooled in an ice-water mixture, and the pia mater and vascular tissue were removed. Brain tissue was taken out. 10 times volume (ml/g) of 10 mM Tris HCl buffer (containing 0.32 M sucrose, pH 7.4) was added, an ultrasonic cell pulverizer was used for homogenization (maintaining at a low temperature), and the brain tissue was homogenized and centrifuged for 10 min (4° C., 1,000 g). After balanced centrifugation (1500 g, 10 min) at 4° C., precipitate was discarded, then supernatant was taken, and centrifugation (20000 g) was performed again for 30 min. The supernatant was discarded and the precipitate, i.e. crude extract of synaptic corpuscles, was retained. The precipitate was further suspended in 0.32 M cold sucrose solution and then carefully laid on 1.2 M and 0.8 M (10 ml each) cold sucrose gradient solutions which had been laid sequentially on the bottom of the tube, followed by balanced centrifugation (38000 g) at 4 °C for 60 min. A suspension band at the 0.8-1.2 M sucrose interface was carefully collected with a puncture needle, which was placed in 10 ml of 0.32 M cold sucrose solution and mixed well, and equilibrium centrifuged (20000 g) at 4 °C for 30 min. The precipitate was refined brain synaptosomes. […]
as §1

In assay [3] the test system is pyramidal neurons in prefrontal PrL brain area. Description: Brain slice electrophysiology, sEPSC of mPFC pyramidal neurons. The format is cell-based, mice. The conditions noted are these: antagonist at working concentration 10 μM. An excerpt: 2) Brain Slice Electrophysiological Experiment: For Detecting Effect of Compound M2 on mPFC Excitatory Synaptic Transmission • Animal: neonatal mice C57 BL/6J (20-30 days). • Instrument: vibratome (Leica), brain slice electrophysiological system (Axon). • Brain slice electrophysiological experiment method • SEPSC experiment method: Neonatal C57 mice were anesthetized and then perfused with artificial cerebrospinal fluid (ACSF). After decapitation, brain tissue was taken quickly and sliced by vibratome, with a thickness of a brain slice being 300 μm. After the brain slices were incubated at 28 °C for 1 h, whole-cell recordings of mPFC pyramidal neurons were made using a voltage clamp (−70 mV) through a brain slice electrophysiological system. The baseline recording time was 6 min, and then a drug to be tested was added through a perfusion system (the drug was dissolved using ACSF), and the recording time after adding the drug was 6-10 min. Recorded data was analyzed using Minianalysis software, and effects of the drug to be tested on sEPSC frequency and amplitude of medial prefrontal pyramidal neurons in C57 mice were compared.
All data analysis was done using spss data processing software, and data was expressed by Mean±s.e.m. One-way ANOVA was used to analyze the effect of compound M2 and the effect of compound M2 under the action of dopamine receptor antagonists on sEPSC current: and paired t test was used to analyze sEPSC experimental results. * was marked when p<0.05.
During the experiment, 10 μM Bicuculine was added to the solution to block GABA receptor, so as to record sEPSC of pyramidal neurons. The experiment investigated effects of different concentrations of compound M2 on spontaneous excitatory postsynaptic […] (sEPSC) of pyramidal neurons in prefrontal PrL brain area, as shown in FIG. 2.

The subject of a further assay is C57 BL/6J male mice. Description: Forced swimming experiment in mice. The format is in vivo. The conditions noted are these: 24 h after a single i.p. administration; fluoxetine 10 mg/kg, esketamine 10 mg/kg, M2 3-30 mg/kg. The source says: 1) Forced Swimming Experiment: Also Known as Despair Experiment, an Experiment Usually Used to Test Depression-Like Behavior of Mice
• Animal: C57 BL/6J male mice (18-20 g)
Intraperitoneal injection (i.p)

Where [4] appears, read: comparative study (Table 13), 20 mg/kg i.g.
Setting [5] is: comparative study (Table 13), 2.5 mg/kg i.g.
Setting [6] is: dosage exploration study (Table 12), 2.5 mg/kg i.g.

On to `Br.NCCc1cc(O)c(O)cc1O` [6-Hydroxydopamine hydrobromide], for which the “inhibition of 3H-DA reuptake by synaptosomes” value in assay [1] is recorded as 100%.

Consider `CC(C)CNC(=O)/C=C/c1cc(I)c2c(c1)OCO2` [Compound II-3], for which the “effective anxiolytic dosage in mice elevated plus maze experiment” value in the assay on mice was 10 mg/kg. For the same molecule, the “Number of times of drinking water” value in the assay with SD rats (10 mg/kg i.g.) came out at 363.96 ± 145.26. In the assay on ICR mice (setting [4]), the OE % is listed as 41.04 ± 9.52 % and the OT % came to 42.99 ± 11.82 %.

Regarding `CNCCCN1c2ccccc2CCc2ccccc21` [Desipramine hydrochloride], in assay [2], the “inhibition of 3H-NA reuptake by synaptosomes” value was found to be 100%.

Take `Clc1ccc2c(c1)C(c1ccccc1)=NCc1nncn1-2` [Estazolam]: the “Number of times of drinking water” value in the assay on SD rats (1.24 mg/kg i.g.) is listed as 540.41/kg2.25*. Besides, the OE % in the assay with ICR mice (setting [5]) is 69.60 ± 15.12 %; in the assay on ICR mice (setting [6]), 42.78 ± 15.27 %. For the same molecule, the OT % in the assay on ICR mice (setting [5]) worked out at 73.46 ± 20.29 %; with ICR mice (setting [6]) it was 50.12 ± 12.76 %.

For the molecule `CCN1CCCC1CNC(=O)c1cc(S(N)(=O)=O)ccc1OC` (centres unmarked) [Sulpride], the “blocking of the enhancement effect of 150 μM compound M2 on sEPSC distribution frequency” value in assay [3] was “can block the enhancement effect; also recorded: significantly block”.

Regarding `CN[C@]1(c2ccccc2Cl)CCCCC1=O` [esketamine, Esketamine], in the assay on C57 BL/6J male mice, the antidepressant-like effect entry was “had antidepressant-like effect”.

In the case of `CNCCC(Oc1ccc(C(F)(F)F)cc1)c1ccccc1` (centres unmarked) [fluoxetine, Fluoxetine], the antidepressant-like effect entry in the assay with C57 BL/6J male mice is “no antidepressant-like effect”.
